Experimental data taken from patent US9670210B2, “Cyclopropylamines as LSD1 inhibitors” (Incyte Corporation, priority 2014, dated 2017).

The molecules below were run against T1, LSD-1 enzyme (Homo sapiens (Human), UniProt O60341) (assay: not given).
Work on `O=C(O)C1(CN2CCC(CN[C@@H]3C[C@H]3c3ccccc3)(COc3ncc(F)cn3)CC2)CC1` [Example 88, 1-{[4-{[(5-fluoropyrimidin-2-yl)oxy]methyl}-4-({[(1R,2S)-2-phenylcyclopropyl]amino}methyl)piperidin-1-yl]methyl}cyclopropanecarboxylic acid] yielded an IC50 of less than 100 nM. With `N#Cc1ccc(OCC2(CN[C@@H]3C[C@H]3c3ccccc3)CCN(CC3(C(=O)O)CC3)CC2)cc1` [Example 81, 1-{[4-[(4-cyanophenoxy)methyl]-4-({[(1R,2S)-2-phenylcyclopropyl]amino}methyl)piperidin-1-yl]methyl}cyclopropanecarboxylic acid] the IC50 was less than 100 nM. `COCC1(CN[C@@H]2C[C@H]2c2ccccc2)CCN(CC2(C(=O)O)CC2)CC1` [Example 35, 1-{[4-(methoxymethyl)-4-({[(1R,2S)-2-phenylcyclopropyl]amino}methyl)piperidin-1-yl]methyl}cyclopropanecarboxylic acid] showed an IC50 of less than 100 nM. Work on `COCC1(CN[C@@H]2C[C@H]2c2ccccc2)CCN(C(=O)c2ccn(CCC#N)n2)CC1` [Example 107, 3-(3-{[4-(methoxymethyl)-4-({[(1R,2S)-2-phenylcyclopropyl]amino}methyl)piperidin-1-yl]carbonyl}-1H-pyrazol-1-yl)propanenitrile] yielded an IC50 of less than 100 nM. In the case of `N#CCC1(CN[C@@H]2C[C@H]2c2ccccc2)CCN(Cc2cccc(F)c2)CC1` (relative stereo) [Example 9, (1-(3-Fluorobenzyl)-4-{[(trans-2-phenylcyclopropyl)amino]methyl}piperidin-4-yl)acetonitrile], the IC50 is reported as less than 100 nM. In the case of `N#CCC1(CN[C@@H]2C[C@H]2c2ccccc2)CCN(C(=O)c2cccc(F)c2)CC1` (relative stereo) [Example 8, (1-(3-Fluorobenzoyl)-4-{[(trans-2-phenylcyclopropyl)amino]methyl}piperidin-4-yl)acetonitrile], the IC50 is reported as less than 100 nM. `N#Cc1ccc(OCC2(CN[C@@H]3C[C@H]3c3ccccc3)CCN(CC3(C(=O)O)CCC3)CC2)cc1` [Example 85, 1-{[4-[(4-cyanophenoxy)methyl]-4-({[(1R,2S)-2-phenylcyclopropyl]amino}methyl)piperidin-1-yl]methyl}cyclobutanecarboxylic acid] gave an IC50 of less than 100 nM. Work on `COCC1(CN[C@@H]2C[C@H]2c2ccccc2)CCN(C(=O)C2(C#N)CC2)CC1` [Example 102, 1-{[4-(methoxymethyl)-4-({[(1R,2S)-2-phenylcyclopropyl]amino}methyl)piperidin-1-yl]carbonyl}cyclopropanecarbonitrile] yielded an IC50 of less than 100 nM. `Cn1cnc(C(=O)N2CCC(C)(CN[C@@H]3C[C@H]3c3ccccc3)CC2)c1` [Example 47, (1R,2S)—N-({4-methyl-1-[(1-methyl-1H-imidazol-4-yl)carbonyl]piperidin-4-yl}methyl)-2-phenylcyclopropanamine] gave an IC50 of less than 100 nM. `COCC1(CN[C@@H]2C[C@H]2c2ccccc2F)CCN(CC2(C(=O)O)CCC2)CC1` [Example 64, 1-{[4-({[(1R,2S)-2-(2-fluorophenyl)cyclopropyl]amino}methyl)-4-(methoxymethyl)piperidin-1-yl]methyl}cyclobutanecarboxylic acid] was tested, and the IC50 was less than 100 nM. Work on `N#CC1CCN(C(=O)N2CC(CN[C@@H]3C[C@H]3c3ccccc3)C2)CC1` (relative stereo) [Example 12, 1-[(3-{[(trans-2-Phenylcyclopropyl)amino]methyl}azetidin-1-yl)carbonyl]piperidine-4-carbonitrile] yielded an IC50 of less than 100 nM. In the case of `CC1(CN[C@@H]2C[C@H]2c2ccccc2)CCN(Cc2cnc(N)nc2)CC1` [Example 52, 5-{[4-methyl-4-({[(1R,2S)-2-phenylcyclopropyl]amino}methyl)piperidin-1-yl]methyl}pyrimidin-2-amine], the IC50 is reported as less than 100 nM. `O=S(=O)(c1ccc(OC(F)(F)F)cc1)N1CC(CN[C@@H]2C[C@H]2c2ccccc2)C1` (relative stereo) [Example 30, Trans-2-phenyl-N-[(1-{[4-(trifluoromethoxy)phenyl]sulfonyl}azetidin-3-yl)methyl]cyclopropanamine] gave an IC50 of less than 100 nM. For `COCC1(CNC2CC2c2ccccc2OC)CCN(CC2(C(=O)O)CCC2)CC1` (stereo not shown) [Example 66, 1-{[4-(methoxymethyl)-4-({[2-(2-methoxyphenyl)cyclopropyl]amino}methyl)piperidin-1-yl]methyl}cyclobutanecarboxylic acid], the IC50 was less than 100 nM. With `CC1(CN[C@@H]2C[C@H]2c2ccccc2)CCN(CC2(C(=O)O)CCC2)CC1` [Example 45, 1-{[4-methyl-4-({[(1R,2S)-2-phenylcyclopropyl]amino}methyl)piperidin-1-yl]methyl}cyclobutanecarboxylic acid] the IC50 was less than 100 nM. With `NC1(C(=O)N2CCC(CN[C@@H]3C[C@H]3c3ccccc3)(Cc3ccc(F)cc3)CC2)CCC1` [Example 34, 1-{[4-(4-fluorobenzyl)-4-({[(1R,2S)-2-phenylcyclopropyl]amino}methyl)piperidin-1-yl]carbonyl}cyclobutanamine] the IC50 was less than 100 nM. With `N#Cc1cccc(CC2(CN[C@@H]3C[C@H]3c3ccccc3)CCN(CC3(C(=O)O)CCC3)CC2)c1` [Example 57, 1-{[4-(3-cyanobenzyl)-4-({[(1R,2S)-2-phenylcyclopropyl]amino}methyl)piperidin-1-yl]methyl}cyclobutanecarboxylic acid] the IC50 was less than 100 nM. Work on `COCC1(CN[C@@H]2C[C@H]2c2ccc(F)cc2)CCN(CC2(C(=O)O)CCC2)CC1` [Example 63, 1-{[4-({[(1R,2S)-2-(4-fluorophenyl)cyclopropyl]amino}methyl)-4-(methoxymethyl)piperidin-1-yl]methyl}cyclobutanecarboxylic acid] yielded an IC50 of less than 100 nM. Molecule `N#CCc1ccc(CC2(CN[C@@H]3C[C@H]3c3ccccc3)CCN(CC3(C(=O)O)CC3)CC2)cc1` [Example 53, 1-{[4-[4-(cyanomethyl)benzyl]-4-({[(1R,2S)-2-phenylcyclopropyl]amino}methyl)piperidin-1-yl]methyl}cyclopropanecarboxylic acid] has an IC50 of less than 100 nM. In the case of `O=C(N1CC(CNC2CC2c2ccccc2)C1)N1CCCC(Oc2ccccc2)C1` (stereo not drawn) [Example 14, N-({1-[(3-Phenoxypiperidin-1-yl)carbonyl]azetidin-3-yl}methyl)-trans-2-phenylcyclopropanamine], the IC50 is reported as less than 100 nM. For `N[C@H]1CC[C@H](C(=O)N2CCC(CN[C@@H]3C[C@H]3c3ccccc3)(Cc3ccc(F)cc3)CC2)CC1` [Example 33, trans-4-{[4-(4-fluorobenzyl)-4-({[(1R,2S)-2-phenylcyclopropyl]amino}methyl)piperidin-1-yl]carbonyl}cyclohexanamine], the IC50 was less than 100 nM.

These molecules were tested against T1, LSD-1 enzyme (assay: biochemical).
Experimental: LSD1 Histone Demethylase Biochemical Assay
LANCE LSD1/KDM1A demethylase assay-10 μL of 1 nM LSD-1 enzyme (ENZO BML-SE544-0050) in the assay buffer (50 mM Tris, pH 7.5, 0.01% Tween-20, 25 mM NaCl, 5 mM DTT) were preincubated for 1 hour at 25° C. with 0.8 μL compound/DMSO dotted in black 384 well polystyrene plates. […] After stopping the reactions plates were incubated for 30 minutes and read on a PHERAstar FS plate reader (BMG Labtech).
`COCC1(CN[C@@H]2C[C@H]2c2ccccc2)CCN(C(=O)N2CC(O)C2)CC1` [Example 111, 1-{[4-(methoxymethyl)-4-({[(1R,2S)-2-phenylcyclopropyl]amino}methyl)piperidin-1-yl]carbonyl}azetidin-3-ol] gave an IC50 of less than 100 nM.
